{"source": "ChEMBL document CHEMBL4376820", "about": "“Homodimeric Tobramycin Adjuvant Repurposes Novobiocin as an Effective Antibacterial Agent against Gram-Negative Bacteria” (J Med Chem, 2019)", "key": {"Klebsiella pneumoniae [1]": {"test_system": "Klebsiella pneumoniae", "assay": "Bactericidal activity against Klebsiella pneumoniae 116381 assessed as log reduction in colony forming units per ml at 7.1 in LB media after 24 hrs in presence of 50.4 uM novobiocin by time-kill assay", "type": "functional, organism-based"}, "Pseudomonas aeruginosa [2]": {"test_system": "Pseudomonas aeruginosa", "assay": "Antibacterial activity against Pseudomonas aeruginosa 260-97103 clinical isolate incubated for 18 hrs by CLSI protocol based assay", "type": "functional", "conditions": "260-97103, 18 h"}, "Pseudomonas aeruginosa [3]": {"test_system": "Pseudomonas aeruginosa", "assay": "Bactericidal activity against Pseudomonas aeruginosa PAO1 assessed as log reduction in colony forming units per ml at 7.1 uM in LB media after 24 hrs in presence of 50.4 uM novobiocin by time-kill assay", "type": "functional"}, "Acinetobacter baumannii [4]": {"test_system": "Acinetobacter baumannii", "assay": "Antibacterial activity against wild type Acinetobacter baumannii ATCC 17978 assessed as resistant development at 7.1 uM measured after 5 days of passaging in presence of novobiocin by microbroth dilution method relative to control", "type": "functional"}, "Pseudomonas aeruginosa [5]": {"test_system": "Pseudomonas aeruginosa", "assay": "Potentiation of novobiocin-induced antibacterial activity against carbapenem and colistin-resistant Pseudomonas aeruginosa 114228 clinical isolate assessed as fold reduction in novobiocin MIC incubated for 18 hrs by CLSI protocol based assay relative to novobiocin MIC", "type": "functional"}, "Enterobacter cloacae": {"test_system": "Enterobacter cloacae", "assay": "Antibacterial activity against Enterobacter cloacae 117029 clinical solate incubated for 18 hrs by CLSI protocol based assay", "type": "functional", "conditions": "Enterobacter cloacae, 117029, 18 h"}, "Pseudomonas aeruginosa [6]": {"test_system": "Pseudomonas aeruginosa", "assay": "Synergistic antibacterial activity against wild type Pseudomonas aeruginosa PAO1 assessed as potentiation of rifampicin-induced antibacterial effect incubated for 18 hrs by checkerboard assay relative to rifampicin alone", "type": "functional"}, "Klebsiella pneumoniae [7]": {"test_system": "Klebsiella pneumoniae", "assay": "Potentiation of novobiocin-induced antibacterial activity against Klebsiella pneumoniae 116381 clinical isolate assessed as fold reduction in novobiocin MIC incubated for 18 hrs by CLSI protocol based assay relative to novobiocin MIC", "type": "functional"}, "Pseudomonas aeruginosa [8]": {"test_system": "Pseudomonas aeruginosa", "assay": "Antibacterial activity against carbapenem and colistin-resistant Pseudomonas aeruginosa 114228 clinical incubated for 18 hrs by CLSI protocol based assay B84", "type": "functional", "conditions": "Pseudomonas aeruginosa, 114228, 18 h"}, "Acinetobacter baumannii [9]": {"test_system": "Acinetobacter baumannii", "assay": "Potentiation of novobiocin-induced antibacterial activity against Acinetobacter baumannii 027 clinical isolate assessed as fold reduction in novobiocin MIC incubated for 18 hrs by CLSI protocol based assay relative to novobiocin MIC", "type": "functional"}, "Pseudomonas aeruginosa [10]": {"test_system": "Pseudomonas aeruginosa", "assay": "Synergistic antibacterial activity against wild type Pseudomonas aeruginosa PAO1 assessed as potentiation of meropenem-induced antibacterial effect incubated for 18 hrs by checkerboard assay relative to meropenem alone", "type": "functional"}, "Pseudomonas aeruginosa [11]": {"test_system": "Pseudomonas aeruginosa", "assay": "Potentiation of novobiocin-induced antibacterial activity against carbapenem-resistant Pseudomonas aeruginosa 262-101856 clinical isolate assessed as novobiocin MIC at <= 7.1 uM incubated for 18 hrs by CLSI protocol based assay (reference value: 512 ug/ml)", "type": "functional", "conditions": "262-101856, 18 h"}, "Pseudomonas aeruginosa [12]": {"test_system": "Pseudomonas aeruginosa", "assay": "Antibacterial activity against wild type Pseudomonas aeruginosa PAO1 assessed as fractional inhibitory concentration index incubated for 18 hrs in presence of tobramycin by checkerboard assay", "type": "functional"}, "[13]": {"assay": "Toxicity in Galleria mellonella larvae MDR Acinetobacter baumannii isolate assessed as larvae protection at 50 mg/kg in combination with novobiocin measured after 24 to 96 hrs relative to control", "type": "ADME, organism-based", "conditions": "in vivo"}, "Acinetobacter baumannii [14]": {"test_system": "Acinetobacter baumannii", "assay": "Potentiation of novobiocin-induced antibacterial activity against wild type Acinetobacter baumannii ATCC 17978 assessed as fold reduction in novobiocin MIC incubated for 18 hrs by CLSI protocol based assay relative to novobiocin MIC", "type": "functional"}, "Pseudomonas aeruginosa [15]": {"test_system": "Pseudomonas aeruginosa", "assay": "Bactericidal activity against Pseudomonas aeruginosa PAO1 assessed as log reduction in colony forming units per ml at 7.1 uM in LB media after 24 hrs in by time-kill assay", "type": "functional"}, "Pseudomonas aeruginosa [16]": {"test_system": "Pseudomonas aeruginosa", "assay": "Synergistic antibacterial activity against wild type Pseudomonas aeruginosa PAO1 assessed as potentiation of cefotaxime-induced antibacterial effect incubated for 18 hrs by checkerboard assay relative to cefotaxime alone", "type": "functional"}, "Escherichia coli [17]": {"test_system": "Escherichia coli", "assay": "Antibacterial activity against colistin-resistant Escherichia coli 94393 clinical isolate harboring mcr-1 gene incubated for 18 hrs by CLSI protocol based assay", "type": "functional", "conditions": "Escherichia coli, 94393, 18 h"}, "Acinetobacter baumannii [18]": {"test_system": "Acinetobacter baumannii", "assay": "Antibacterial activity against wild type Acinetobacter baumannii ATCC 17978 assessed as resistant development at 7.1 uM in presence of novobiocin by microbroth dilution method relative to control", "type": "functional"}, "Acinetobacter baumannii [19]": {"test_system": "Acinetobacter baumannii", "assay": "Antibacterial activity against Acinetobacter baumannii LAC-4 clinical isolate incubated for 18 hrs by CLSI protocol based assay", "type": "functional", "conditions": "LAC-4, 18 h"}, "Pseudomonas aeruginosa [20]": {"test_system": "Pseudomonas aeruginosa", "assay": "Potentiation of novobiocin-induced antibacterial activity against carbapenem-resistant Pseudomonas aeruginosa 260-97103 clinical isolate assessed as novobiocin MIC at <= 7.1 uM incubated for 18 hrs by CLSI protocol based assay (reference value: 256 ug/ml)", "type": "functional", "conditions": "260-97103, 18 h"}, "Klebsiella pneumoniae [21]": {"test_system": "Klebsiella pneumoniae", "assay": "Bactericidal activity against Klebsiella pneumoniae 116381 assessed as log reduction in colony forming units per ml at 7.1 in LB media after 24 hrs by time-kill assay", "type": "functional"}, "Pseudomonas aeruginosa [22]": {"test_system": "Pseudomonas aeruginosa", "assay": "Synergistic antibacterial activity against wild type Pseudomonas aeruginosa PAO1 assessed as potentiation of aztreonam-induced antibacterial effect incubated for 18 hrs by checkerboard assay", "type": "functional, organism-based"}, "Acinetobacter baumannii [23]": {"test_system": "Acinetobacter baumannii", "assay": "Antibacterial activity against Acinetobacter baumannii 110193 clinical isolate incubated for 18 hrs by CLSI protocol based assay", "type": "functional", "conditions": "Acinetobacter baumannii, 110193, 18 h"}, "Pseudomonas aeruginosa [24]": {"test_system": "Pseudomonas aeruginosa", "assay": "Synergistic antibacterial activity against wild type Pseudomonas aeruginosa PAO1 assessed as potentiation of vancomycin-induced antibacterial effect at <=7.1 uM incubated for 18 hrs by checkerboard assay", "type": "functional, organism-based"}, "Pseudomonas aeruginosa [25]": {"test_system": "Pseudomonas aeruginosa", "assay": "Synergistic antibacterial activity against wild type Pseudomonas aeruginosa PAO1 assessed as potentiation of ciprofloxacin-induced antibacterial effect incubated for 18 hrs by checkerboard assay relative to ciprofloxacin alone", "type": "functional"}, "Pseudomonas aeruginosa [26]": {"test_system": "Pseudomonas aeruginosa", "assay": "Synergistic antibacterial activity against wild type Pseudomonas aeruginosa PAO1 assessed as potentiation of piperacillin-induced antibacterial effect incubated for 18 hrs by checkerboard assay", "type": "functional, organism-based"}, "Pseudomonas aeruginosa [27]": {"test_system": "Pseudomonas aeruginosa", "assay": "Antibacterial activity against carbapenem and colistin-resistant Pseudomonas aeruginosa 91433 clinical isolate incubated for 18 hrs by CLSI protocol based assay", "type": "functional", "conditions": "Pseudomonas aeruginosa, 91433, 18 h"}, "Pseudomonas aeruginosa [28]": {"test_system": "Pseudomonas aeruginosa", "assay": "Synergistic antibacterial activity against wild type Pseudomonas aeruginosa PAO1 assessed as potentiation of chloramphenicol-induced antibacterial effect incubated for 18 hrs by checkerboard assay relative to chloramphenicol alone", "type": "functional"}, "Pseudomonas aeruginosa [29]": {"test_system": "Pseudomonas aeruginosa", "assay": "Antibacterial activity against wild type Pseudomonas aeruginosa PAO1 assessed as fractional inhibitory concentration index incubated for 18 hrs in presence of colistin by checkerboard assay", "type": "functional"}, "Escherichia coli [30]": {"test_system": "Escherichia coli", "assay": "Potentiation of novobiocin-induced antibacterial activity against wild type Escherichia coli ATCC 25922 assessed as novobiocin MIC at <= 7.1 uM incubated for 18 hrs by CLSI protocol based assay (reference value: 64 ug/ml)", "type": "functional", "conditions": "ATCC 25922, 18 h"}, "Pseudomonas aeruginosa [31]": {"test_system": "Pseudomonas aeruginosa", "assay": "Synergistic antibacterial activity against wild type Pseudomonas aeruginosa PAO1 assessed as potentiation of linezolid-induced antibacterial effect incubated for 18 hrs by checkerboard assay relative to linezolid alone", "type": "functional"}, "Klebsiella pneumoniae [32]": {"test_system": "Klebsiella pneumoniae", "assay": "Potentiation of novobiocin-induced antibacterial activity against Klebsiella pneumoniae 116381 clinical isolate assessed as novobiocin MIC at <= 7.1 uM incubated for 18 hrs by CLSI protocol based assay (reference value: 1024 ug/ml)", "type": "functional", "conditions": "Klebsiella pneumoniae, 116381, 18 h"}, "Escherichia coli [33]": {"test_system": "Escherichia coli", "assay": "Potentiation of novobiocin-induced antibacterial activity against colistin-resistant Escherichia coli 94393 clinical isolate harboring mcr-1 gene assessed as fold reduction in novobiocin MIC incubated for 18 hrs by CLSI protocol based assay relative to novobiocin MIC", "type": "functional"}}, "note": "The source made the active and inactive calls. No cut-off for these calls is given here.", "data": [{"molecule": "NC[C@H]1O[C@H](O[C@H]2[C@H](OCCCCc3cn(CCCCO[C@@H]4[C@@H](O[C@H]5O[C@H](CO)[C@@H](O)[C@H](N)[C@H]5O)[C@H](N)C[C@H](N)[C@H]4O[C@H]4O[C@H](CN)[C@@H](O)C[C@H]4N)nn3)[C@@H](O[C@H]3O[C@H](CO)[C@@H](O)[C@H](N)[C@H]3O)[C@H](N)C[C@@H]2N)[C@H](N)C[C@@H]1O.O=C(O)C(F)(F)F.O=C(O)C(F)(F)F.O=C(O)C(F)(F)F.O=C(O)C(F)(F)F.O=C(O)C(F)(F)F.O=C(O)C(F)(F)F.O=C(O)C(F)(F)F.O=C(O)C(F)(F)F.O=C(O)C(F)(F)F.O=C(O)C(F)(F)F", "values": [{"measurement": "Activity", "setting": "Klebsiella pneumoniae [1]", "result": "Active"}, {"measurement": "MIC", "setting": "Pseudomonas aeruginosa [2]", "result": "> 128", "unit": "µg/mL"}, {"measurement": "Activity", "setting": "Pseudomonas aeruginosa [3]", "result": -9.48, "unit": "CFU/ml"}, {"measurement": "fold change (FC)", "setting": "Acinetobacter baumannii [4]", "result": 16}, {"measurement": "Ratio", "setting": "Pseudomonas aeruginosa [5]", "result": 32}, {"measurement": "MIC", "setting": "Enterobacter cloacae", "result": "> 128", "unit": "µg/mL"}, {"measurement": "fold change (FC)", "setting": "Pseudomonas aeruginosa [6]", "result": "4 - 128"}, {"measurement": "Ratio", "setting": "Klebsiella pneumoniae [7]", "result": 128}, {"measurement": "MIC", "setting": "Pseudomonas aeruginosa [8]", "result": "> 128", "unit": "µg/mL"}, {"measurement": "Ratio", "setting": "Acinetobacter baumannii [9]", "result": 16}, {"measurement": "fold change (FC)", "setting": "Pseudomonas aeruginosa [10]", "result": "4 - 128"}, {"measurement": "MIC", "setting": "Pseudomonas aeruginosa [11]", "result": 8, "unit": "µg/mL"}, {"measurement": "fractional inhibitory concentration index (FICI)", "setting": "Pseudomonas aeruginosa [12]", "result": ">4"}, {"measurement": "Activity", "setting": "[13]", "result": 80, "unit": "%"}, {"measurement": "Ratio", "setting": "Acinetobacter baumannii [14]", "result": 32}, {"measurement": "Activity", "setting": "Pseudomonas aeruginosa [15]", "result": -3.68, "unit": "CFU/ml"}, {"measurement": "fold change (FC)", "setting": "Pseudomonas aeruginosa [16]", "result": "4 - 128"}, {"measurement": "MIC", "setting": "Escherichia coli [17]", "result": "> 128", "unit": "µg/mL"}, {"measurement": "fold change (FC)", "setting": "Acinetobacter baumannii [18]", "result": 2}, {"measurement": "MIC", "setting": "Acinetobacter baumannii [19]", "result": "> 128", "unit": "µg/mL"}, {"measurement": "MIC", "setting": "Pseudomonas aeruginosa [20]", "result": 1, "unit": "µg/mL"}, {"measurement": "Activity", "setting": "Klebsiella pneumoniae [21]", "result": -8.68, "unit": "CFU/ml"}, {"measurement": "Activity", "setting": "Pseudomonas aeruginosa [22]", "result": "Dose-dependent effect"}, {"measurement": "MIC", "setting": "Acinetobacter baumannii [23]", "result": "> 128", "unit": "µg/mL"}, {"measurement": "Activity", "setting": "Pseudomonas aeruginosa [24]", "result": "inactive"}, {"measurement": "fold change (FC)", "setting": "Pseudomonas aeruginosa [25]", "result": "4 - 128"}, {"measurement": "Activity", "setting": "Pseudomonas aeruginosa [26]", "result": "Dose-dependent effect"}, {"measurement": "MIC", "setting": "Pseudomonas aeruginosa [27]", "result": "> 128", "unit": "µg/mL"}, {"measurement": "fold change (FC)", "setting": "Pseudomonas aeruginosa [28]", "result": "4 - 128"}, {"measurement": "fractional inhibitory concentration index (FICI)", "setting": "Pseudomonas aeruginosa [29]", "result": ">4"}, {"measurement": "MIC", "setting": "Escherichia coli [30]", "result": 2, "unit": "µg/mL"}, {"measurement": "fold change (FC)", "setting": "Pseudomonas aeruginosa [31]", "result": "4 - 128"}, {"measurement": "MIC", "setting": "Klebsiella pneumoniae [32]", "result": 8, "unit": "µg/mL"}, {"measurement": "Ratio", "setting": "Escherichia coli [33]", "result": 64}]}]}
